{
  "source": "patent US20230013669A1",
  "about": "“Antibacterial Treatment Using a Cannabinoid and an Active Agent” (priority 2019, published 2023)",
  "test_system": "Klebsiella pneumoniae ATCC 13883 (GN_003 / GN_004)",
  "test": "Synergy of cannabidiol with cell-wall disrupting agent (CBD MIC in combination, FICI)",
  "assay_type": "cell-based",
  "experimental": "The compounds were stored short term at 4° C.\nAnalysis was performed using Microsoft Excel.",
  "key": {"[1]": {"settings": "CBD with Colistin, Klebsiella pneumoniae ATCC 700603"}, "[2]": {"settings": "CBD with MCC_6442, Klebsiella pneumoniae ATCC 700603, listed as CBD"}},
  "note": "Where “and” joins values, the source holds several entries; their conditions need not be identical. Identical values can stand only once.",
  "data": [
    {"smiles": "C=C(C)C1CCC(C)=CC1c1c(O)cc(CCCCC)cc1O", "note": "(centres unmarked) [Cannabidiol, 2-[3-methyl-6-(1-methylethenyl)-2-cyclohexen-1-yl]-5-pentyl-1,3-benzenediol]", "values": [
      {"measurement": "FICI range (MIC table)", "setting": "CBD with Cefotetan, Klebsiella pneumoniae ATCC 700603, listed as CBD", "result": "1-1.5 and 0.5-1.25"},
      {"measurement": "FICI", "setting": "CBD with Ceftazidime at 4 μg/mL, Klebsiella pneumoniae ATCC 700603, listed as CBD", "result": 1},
      {"measurement": "FICI", "setting": "CBD with Ceftazidime at 8 μg/mL, Klebsiella pneumoniae ATCC 700603, listed as CBD", "result": 1},
      {"measurement": "FICI", "setting": "CBD with Ceftazidime at 16 μg/mL, Klebsiella pneumoniae ATCC 700603, listed as CBD", "result": "1.001 and 1"},
      {"measurement": "FICI", "setting": "CBD with Ceftazidime at 32 μg/mL, Klebsiella pneumoniae ATCC 700603, listed as CBD", "result": "1.002 and 1.001"},
      {"measurement": "FICI", "setting": "CBD with Ceftazidime at 64 μg/mL, Klebsiella pneumoniae ATCC 700603, listed as CBD", "result": "0.00391 and 0.001957"},
      {"measurement": "FICI", "setting": "CBD with Ceftazidime at 128 μg/mL, Klebsiella pneumoniae ATCC 700603, listed as CBD", "result": "0.007816 and 0.00391"},
      {"measurement": "FICI range (MIC table)", "setting": "CBD with Ceftazidime, Klebsiella pneumoniae ATCC 700603", "result": "0-1"},
      {"measurement": "FICI", "setting": "CBD with Cefuroxime at 1 μg/mL, Klebsiella pneumoniae ATCC 700603", "result": 1.016},
      {"measurement": "FICI", "setting": "CBD with Cefuroxime at 2 μg/mL, Klebsiella pneumoniae ATCC 700603", "result": 1.031},
      {"measurement": "FICI", "setting": "CBD with Cefuroxime at 4 μg/mL, Klebsiella pneumoniae ATCC 700603", "result": 1.0625},
      {"measurement": "FICI", "setting": "CBD with Cefuroxime at 8 μg/mL, Klebsiella pneumoniae ATCC 700603", "result": 1.125},
      {"measurement": "FICI", "setting": "CBD with Cefuroxime at 16 μg/mL, Klebsiella pneumoniae ATCC 700603", "result": 1.25},
      {"measurement": "FICI", "setting": "CBD with Cefuroxime at 32 μg/mL, Klebsiella pneumoniae ATCC 700603", "result": 0.5},
      {"measurement": "FICI", "setting": "CBD with Colistin at 0.031 μg/mL, Klebsiella pneumoniae ATCC 700603", "result": 1.03},
      {"measurement": "FICI", "setting": "CBD with Colistin at 0.062 μg/mL, Klebsiella pneumoniae ATCC 700603", "result": 1.06},
      {"measurement": "FICI", "setting": "CBD with Colistin at 0.25 μg/mL, Klebsiella pneumoniae ATCC 700603", "result": 1.25},
      {"measurement": "FICI", "setting": "CBD with Colistin at 0.5 μg/mL, Klebsiella pneumoniae ATCC 700603", "result": 0.5},
      {"measurement": "FICI", "setting": "CBD with Colistin at 1 μg/mL, Klebsiella pneumoniae ATCC 700603", "result": 1},
      {"measurement": "FICI range (MIC table)", "setting": "[1]", "result": "0.5-1.25"},
      {"measurement": "FICI range (Synergy table)", "setting": "[1]", "result": "0.5-1.25"},
      {"measurement": "FICI range (MIC table)", "setting": "[2]", "result": "0.25-1.13 and 0.13-1.06"},
      {"measurement": "FICI range (Synergy table)", "setting": "[2]", "result": "0.25-0.5 and 0.13-0.25"},
      {"measurement": "FICI", "setting": "CBD with MCC_6442 at 0.25 μg/mL, Klebsiella pneumoniae ATCC 700603", "result": 1.031},
      {"measurement": "FICI", "setting": "CBD with MCC_6442 at 0.25 μg/mL, Klebsiella pneumoniae ATCC 700603, listed as CBD", "result": 1.016},
      {"measurement": "FICI", "setting": "CBD with MCC_6442 at 0.5 μg/mL, Klebsiella pneumoniae ATCC 700603, listed as CBD", "result": "1.0625 and 1.031"},
      {"measurement": "FICI", "setting": "CBD with MCC_6442 at 1 μg/mL, Klebsiella pneumoniae ATCC 700603, listed as CBD", "result": "1.125 and 1.0625"},
      {"measurement": "FICI", "setting": "CBD with MCC_6442 at 2 μg/mL, Klebsiella pneumoniae ATCC 700603, listed as CBD", "result": "0.2539 and 0.1289"},
      {"measurement": "FICI", "setting": "CBD with MCC_6442 at 4 μg/mL, Klebsiella pneumoniae ATCC 700603, listed as CBD", "result": "0.501 and 0.251"},
      {"measurement": "FICI", "setting": "CBD with Ticarcillin at 2 μg/mL, Klebsiella pneumoniae ATCC 700603", "result": 1.002},
      {"measurement": "FICI", "setting": "CBD with Ticarcillin at 4 μg/mL, Klebsiella pneumoniae ATCC 700603", "result": 1.004},
      {"measurement": "FICI", "setting": "CBD with Ticarcillin at 16 μg/mL, Klebsiella pneumoniae ATCC 700603", "result": 1.016},
      {"measurement": "FICI", "setting": "CBD with Ticarcillin at 32 μg/mL, Klebsiella pneumoniae ATCC 700603", "result": 1.031},
      {"measurement": "FICI", "setting": "CBD with Ticarcillin at 64 μg/mL, Klebsiella pneumoniae ATCC 700603", "result": 1.0625},
      {"measurement": "FICI range (MIC table)", "setting": "CBD with Ticarcillin, Klebsiella pneumoniae ATCC 700603", "result": "1-1.06"},
      {"measurement": "CBD MIC with Cefotetan", "setting": "Cefotetan at 0.015 μg/mL, Klebsiella pneumoniae ATCC 700603", "result": ">256", "unit": "µg/mL"},
      {"measurement": "CBD MIC with Cefotetan", "setting": "Cefotetan at 0.031 μg/mL, Klebsiella pneumoniae ATCC 700603", "result": ">256", "unit": "µg/mL"},
      {"measurement": "CBD MIC with Cefotetan", "setting": "Cefotetan at 0.062 μg/mL, Klebsiella pneumoniae ATCC 700603", "result": ">256", "unit": "µg/mL"},
      {"measurement": "CBD MIC with Cefotetan", "setting": "Cefotetan at 0.25 μg/mL, Klebsiella pneumoniae ATCC 700603", "result": ">256", "unit": "µg/mL"},
      {"measurement": "CBD MIC with Cefotetan", "setting": "Cefotetan at 0.5 μg/mL, Klebsiella pneumoniae ATCC 700603", "result": 0.001, "unit": "µg/mL"},
      {"measurement": "CBD MIC with Ceftazidime", "setting": "Ceftazidime at 0.015 μg/mL as headed in Table 64, Klebsiella pneumoniae ATCC 700603", "result": ">256", "unit": "µg/mL"},
      {"measurement": "CBD MIC with Ceftazidime", "setting": "Ceftazidime at 0.031 μg/mL as headed in Table 64, Klebsiella pneumoniae ATCC 700603", "result": ">256", "unit": "µg/mL"},
      {"measurement": "CBD MIC with Ceftazidime", "setting": "Ceftazidime at 0.062 μg/mL as headed in Table 64, Klebsiella pneumoniae ATCC 700603", "result": ">256", "unit": "µg/mL"},
      {"measurement": "CBD MIC with Ceftazidime", "setting": "Ceftazidime at 0.25 μg/mL as headed in Table 64, Klebsiella pneumoniae ATCC 700603", "result": 0.001, "unit": "µg/mL"},
      {"measurement": "CBD MIC with Ceftazidime", "setting": "Ceftazidime at 0.5 μg/mL as headed in Table 64, Klebsiella pneumoniae ATCC 700603", "result": 0.001, "unit": "µg/mL"},
      {"measurement": "CBD MIC with Ceftazidime", "setting": "Ceftazidime at 4 μg/mL (Table 66), Klebsiella pneumoniae ATCC 700603", "result": ">32", "unit": "µg/mL"},
      {"measurement": "CBD MIC with Ceftazidime", "setting": "Ceftazidime at 8 μg/mL (Table 66), Klebsiella pneumoniae ATCC 700603", "result": ">32", "unit": "µg/mL"},
      {"measurement": "CBD MIC with Ceftazidime", "setting": "Ceftazidime at 16 μg/mL (Table 66), Klebsiella pneumoniae ATCC 700603", "result": ">32", "unit": "µg/mL"},
      {"measurement": "CBD MIC with Ceftazidime", "setting": "Ceftazidime at 32 μg/mL (Table 66), Klebsiella pneumoniae ATCC 700603", "result": ">32", "unit": "µg/mL"},
      {"measurement": "CBD MIC with Ceftazidime", "setting": "Ceftazidime at 64 μg/mL (Table 66), Klebsiella pneumoniae ATCC 700603", "result": 0.001, "unit": "µg/mL"},
      {"measurement": "CBD MIC with Ceftazidime", "setting": "Ceftazidime at 128 μg/mL (Table 66), Klebsiella pneumoniae ATCC 700603", "result": 0.001, "unit": "µg/mL"},
      {"measurement": "CBD MIC with Cefuroxime", "setting": "Cefuroxime at 32 μg/mL, Klebsiella pneumoniae ATCC 700603", "result": 1, "unit": "ng/mL"},
      {"measurement": "CBD MIC with Colistin", "setting": "Colistin at 0.5 μg/mL, Klebsiella pneumoniae ATCC 700603", "result": 1, "unit": "ng/mL"},
      {"measurement": "CBD MIC with Colistin", "setting": "Colistin at 1 μg/mL, Klebsiella pneumoniae ATCC 700603", "result": 1, "unit": "ng/mL"},
      {"measurement": "activity of cannabidiol combined with octapeptin MCC_006442", "setting": "Example 4", "result": "effective"},
      {"measurement": "activity of cannabidiol in combination with octapeptin MCC_006442", "setting": "Example 7", "result": "effective"}
    ]}
  ]
}
